Assay results: BindingDB's records for doi:10.1021/ml400168h (Merck Research Laboratories, 2013)

Molecular target: Sterol O-acyltransferase 1 / ACAT1 (Homo sapiens) (UniProt P35610)
Experiment: Inhibition of human ACAT1

Sequence of Sterol O-acyltransferase 1 / ACAT1 (Homo sapiens) (P35610 whole entry, looked up): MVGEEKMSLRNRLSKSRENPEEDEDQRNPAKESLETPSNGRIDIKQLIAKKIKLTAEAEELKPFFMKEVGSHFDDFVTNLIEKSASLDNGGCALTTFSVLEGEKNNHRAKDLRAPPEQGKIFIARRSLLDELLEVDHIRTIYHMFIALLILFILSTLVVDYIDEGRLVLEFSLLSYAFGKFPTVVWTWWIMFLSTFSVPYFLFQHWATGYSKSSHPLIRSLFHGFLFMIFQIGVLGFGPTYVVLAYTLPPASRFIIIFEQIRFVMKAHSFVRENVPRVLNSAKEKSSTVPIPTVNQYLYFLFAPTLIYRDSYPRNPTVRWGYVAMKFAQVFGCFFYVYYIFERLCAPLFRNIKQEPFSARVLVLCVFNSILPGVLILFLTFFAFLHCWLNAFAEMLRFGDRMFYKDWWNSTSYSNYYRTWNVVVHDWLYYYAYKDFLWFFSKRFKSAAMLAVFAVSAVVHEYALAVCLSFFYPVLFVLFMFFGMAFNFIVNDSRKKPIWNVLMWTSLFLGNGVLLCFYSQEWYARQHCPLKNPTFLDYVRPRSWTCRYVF

| SMILES | IC50 [µM] |
| --- | --- |
| O=C(O)[C@H]1CC[C@H](Oc2ccc(-c3ccc(-c4nc5ccc(F)cc5[nH]4)cn3)cn2)CC1 | > 10 |
| O=C(O)[C@H]1CC[C@@H](Oc2ccc(-c3ccc(-c4nc5ccc(F)cc5[nH]4)cn3)cn2)CC1 | > 10 |
| O=C(O)[C@H]1CC[C@H](Oc2ccc(-c3ccc(-c4nc5ccccc5[nH]4)cn3)cn2)CC1 | 6.07 |
| O=C(O)[C@H]1CC[C@@H](Oc2ccc(-c3ccc(-c4nc5ccccc5[nH]4)cn3)cn2)CC1 | 8.08 |
| COc1ccc2[nH]c(-c3ccc(-c4ccc(O[C@H]5CC[C@H](C(=O)O)CC5)nc4)nc3)nc2n1 | 4.9 |
| COc1ccc2[nH]c(-c3ccc(-c4ccc(O[C@H]5CC[C@@H](C(=O)O)CC5)nc4)nc3)nc2n1 | 2.48 |
| CS(=O)(=O)c1ccc2nc(-c3ccc(-c4ccc(O[C@H]5CC[C@H](C(=O)O)CC5)nc4)nc3)[nH]c2c1 | > 10 |
| CS(=O)(=O)c1ccc2nc(-c3ccc(-c4ccc(O[C@H]5CC[C@@H](C(=O)O)CC5)nc4)nc3)[nH]c2c1 | > 10 |
| O=C(O)[C@H]1CC[C@@H](Oc2ccc(-c3ccc(-c4nc5ccc(OC(F)(F)F)cc5[nH]4)cn3)cn2)CC1 | 0.772 |
| N#Cc1ccc2nc(-c3ccc(-c4ccc(O[C@H]5CC[C@H](C(=O)O)CC5)nc4)nc3)[nH]c2c1 | > 10 |
| N#Cc1ccc2nc(-c3ccc(-c4ccc(O[C@H]5CC[C@@H](C(=O)O)CC5)nc4)nc3)[nH]c2c1 | > 10 |
| O=C(O)[C@H]1CC[C@H](Oc2ccc(-c3ccc(-c4nc5cc(F)c(F)cc5[nH]4)cn3)cn2)CC1 | 8.44 |
| O=C(O)[C@H]1CC[C@@H](Oc2ccc(-c3ccc(-c4nc5cc(F)c(F)cc5[nH]4)cn3)cn2)CC1 | > 10 |
| O=C(O)C[C@H]1CC[C@H](c2ccc(-c3ccc(-c4nc5ccc(Cl)cc5[nH]4)cn3)cc2)CC1 | 0.167 |
| O=C(O)C[C@H]1CC[C@H](c2ccc(-c3ccc(-c4nc5ccc(C(F)(F)F)cc5[nH]4)cn3)cc2)CC1 | 0.293 |
| O=C(O)[C@H]1CC[C@H](Oc2ccc(-c3ccc(-c4nc5ccc(Cl)cc5[nH]4)cn3)cn2)CC1 | 1.34 |
| O=C(O)[C@H]1CC[C@@H](Oc2ccc(-c3ccc(-c4nc5ccc(Cl)cc5[nH]4)cn3)cn2)CC1 | 3.53 |
| O=C(O)[C@H]1CC[C@H](Oc2ccc(-c3ccc(-c4nc5ccc(C(F)(F)F)cc5[nH]4)cn3)cn2)CC1 | 1.23 |
| O=C(O)[C@H]1CC[C@@H](Oc2ccc(-c3ccc(-c4nc5ccc(C(F)(F)F)cc5[nH]4)cn3)cn2)CC1 | 1.09 |
